Experimental data as given in ChEMBL document CHEMBL5338747, “Discovery of Quaternized Pyridine-Thiazole-Pleuromutilin Derivatives with Broad-Spectrum Antibacterial and Potent Anti-MRSA Activity” (J Med Chem, 2023).
Calls of active or inactive are those of the source. The rule behind the calls is not given here.

Key:
[1] = test system: Cell membrane; test: Disruption of bacterial cell membrane in methicillin-resistant Staphylococcus aureus ATCC 33591 assessed as reduction in green fluorescence intensity at MIC incubated for 2 hrs by MycoLightGreen1198/PI staining based confocal laser scanning microscopy; assay type: subcellular
[2] = test system: Staphylococcus aureus; test: Bactericidal activity against methicillin-resistant Staphylococcus aureus ATCC 33591 assessed as reduction in bacterial colonies formation at 4XMIC incubated for 8 hrs in MHB followed by culturing on agar plate for 24 hrs by time-kill kinetics based analysis; assay type: functional; parameters: scale not given: the % may be the effect or the level left; details: time 32 hrs
[3] = test system: Cell membrane; test: Disruption of bacterial cell membrane in Escherichia coli ATCC 25922 assessed as severe depression on the cell surface,cell rupture and leakage of intracellular components at 4XMIC incubated for 4 hrs by FESEM analysis; assay type: subcellular
[4] = test system: Cell membrane; test: Disruption of bacterial cell membrane in Escherichia coli ATCC 25922 assessed as increase in fluorescence intensity by DiBAC4(3) dye based fluorescence analysis; assay type: subcellular
[5] = test system: Escherichia coli; test: Disruption of biofilm formation in Escherichia coli ATCC 25922 assessed as inhibition of biofilm formation at MIC measured after 24 hrs by crystal violet staining based analysis; assay type: functional

C=C[C@]1(C)C[C@@H](OC(=O)CSc2nc(-c3cc[n+](Cc4ccc(C)cc4)cc3)cs2)[C@]2(C)[C@H](C)CC[C@]3(CCC(=O)[C@H]32)[C@@H](C)[C@@H]1O.[Br-]
Activity [1]: Active
Activity [2]: 100%
Activity [3]: Active
Activity [4]: Dose-Dependent Effect
inhibition (INH) [5]: 59.04%
